Source: patent US20140081017A1, “Histone Deacetylase Inhibitors for Enhancing Activity of Antifungal Agents” (METHYLGENE INC., priority 2012, published 2014)
≈ marks a conversion by molar mass, not a printed value. Where two headings read alike, the source gives them in different places.

Assays:
[1] = tested on: C. glabrata; experiment: Checkerboard FIC assay in combination with fluconazole (MIC alone and in combination, FICI); assay type: cell-based, Candida glabrata; details: for FICI of combination resulting in fluconazole MIC of: 2 ug/mL / FICI of combination resulting in fluconazole MIC of: 4 ug/mL / FICI of combination resulting in fluconazole MIC of: 8 ug/mL: FICI calculated using a fluconazole MIC of 16 μg/mL; for FICI of combination resulting in fluconazole MIC of: 2 ug/mL (value in parenthesis) / FICI of combination resulting in fluconazole MIC of: 4 ug/mL (value in parenthesis) / FICI of combination resulting in fluconazole MIC of: 8 ug/mL (value in parenthesis): FICI using a fluconazole MIC of 128 μg/mL; for MIC: Nakaseomyces glabratus; for Multiple of compound MIC to synergize fluconazole MIC to 2 ug/mL / Multiple of compound MIC to synergize fluconazole MIC to 4 ug/mL / Multiple of compound MIC to synergize fluconazole MIC to 8 ug/mL: concentration in combination as multiple of the compound's MIC alone; for Multiple of compound MIC to synergize fluconazole MIC to 2 ug/mL: fluconazole MIC 2 ug/mL; for Multiple of compound MIC to synergize fluconazole MIC to 4 ug/mL: fluconazole MIC 4 ug/mL; for Multiple of compound MIC to synergize fluconazole MIC to 8 ug/mL: fluconazole MIC 8 ug/mL; for Concentration of Methylgene compound to synergize fluconazole MIC to 2 ug/mL / Concentration of Methylgene compound to synergize fluconazole MIC to 4 ug/mL / Concentration of Methylgene compound to synergize fluconazole MIC to 8 ug/mL: in combination with fluconazole; for Concentration of Methylgene compound to synergize fluconazole MIC to 2 ug/mL: fluconazole MIC lowered to 2 ug/mL; for Concentration of Methylgene compound to synergize fluconazole MIC to 4 ug/mL: fluconazole MIC lowered to 4 ug/mL; for Concentration of Methylgene compound to synergize fluconazole MIC to 8 ug/mL: fluconazole MIC lowered to 8 ug/mL
In short: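 A fluconazole synergy checkerboard was run against C. glabrata in MOPS-buffered RPMI (pH 7.0) for about 48 h at 35 °C. Each agent was diluted 2-fold, with one row and one column holding each agent alone for MIC determination. FICI was calculated from these MICs, using a 0.5 McFarland inoculum diluted 1:100 per CLSI.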

[2] = tested on: Candida albicans; experiment: Minimal Inhibitory Concentration (MIC) assay, broth microdilution per CLSI; assay type: cell-based; details: Candida albicans, read-out: Minimum Inhibitory Concentrations against Yeast Isolates, Candida albicans;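 also: two read times 24 hr and 48 hr of incubation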
In short: (§1)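 Yeasts incubated ~24-48 hr at 35°C in MOPS-buffered RPMI (0.165 M, pH 7.0) containing DMSO-dissolved compound, following CLSI microdilution. Inoculum: 0.5 McFarland, diluted 1:100. MIC read visually as lowest concentration inhibiting growth (prominent-decrease endpoint for fluconazole).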

[3] = tested on: Candida glabrata; experiment: as above; assay type: cell-based; details: Nakaseomyces glabratus, read-out: Minimum Inhibitory Concentrations against Yeast Isolates, Candida glabrata;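 also: two read times 24 hr and 48 hr of incubation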
In short: as §1

[4] = tested on: Candida parapsilosis; experiment: as above; assay type: cell-based; details: Lodderomyces parapsilosis, read-out: Minimum Inhibitory Concentrations against Yeast Isolates, Candida parapsilosis;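 also: two read times 24 hr and 48 hr of incubation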
In short: as §1

[5] = MIC of the example compound alone against C. glabrata in the checkerboard assay, approximately 48 hr, read-out: Methylgene MIC
[6] = test compound alone, C. glabrata, approx. 48 hr at 35° C., read-out: Compound MIC
[7] = 24 hr reading (first value of cell 24 hr/48 hr)
[8] = 48 hr reading (second value of cell 24 hr/48 hr)

## CC(=O)Nc1cccc(CCCCc2ccc(CC(=O)NO)cc2)c1 [Example 42, 2-(4-(4-(3-acetamidophenyl)butyl)phenyl)-N-hydroxyacetamide]
[1]; C. glabrata
  FICI of combination resulting in fluconazole MIC of: 2 ug/mL: 0.313
  FICI of combination resulting in fluconazole MIC of: 4 ug/mL: 0.375
  FICI of combination resulting in fluconazole MIC of: 8 ug/mL: 0.375
  FICI of combination resulting in fluconazole MIC of: 2 ug/mL (value in parenthesis): 0.266
  FICI of combination resulting in fluconazole MIC of: 4 ug/mL (value in parenthesis): 0.281
  FICI of combination resulting in fluconazole MIC of: 8 ug/mL (value in parenthesis): 0.188
  Concentration of Methylgene compound to synergize fluconazole MIC to 2 ug/mL: 4 µg/mL
  Concentration of Methylgene compound to synergize fluconazole MIC to 4 ug/mL: 4 µg/mL
  Concentration of Methylgene compound to synergize fluconazole MIC to 8 ug/mL: 2 µg/mL
[1]; [5]
  MIC: 16 µg/mL
[1]; [6]
  MIC: 16 µg/mL
[1]
  Multiple of compound MIC to synergize fluconazole MIC to 2 ug/mL: (¼x)
  Multiple of compound MIC to synergize fluconazole MIC to 4 ug/mL: (¼x)
  Multiple of compound MIC to synergize fluconazole MIC to 8 ug/mL: (⅛x)
[2]; [7]
  MIC: > 32 µg/mL
[2]; [8]
  MIC: > 32 µg/mL
[3]; [7]
  MIC: 8 µg/mL (≈ 23.5 µM)
[3]; [8]
  MIC: 16 µg/mL (≈ 47 µM)
[4]; [7]
  MIC: > 32 µg/mL
[4]; [8]
  MIC: > 32 µg/mL

## O=C(Cc1ccc(C(O)CCCc2ccccc2)cc1)NO (stereo not drawn) [Example 59, N-hydroxy-2-(4-(1-hydroxy-4-phenylbutyl)phenyl)acetamide]
[1]; C. glabrata
  FICI of combination resulting in fluconazole MIC of: 2 ug/mL: 0.313
  FICI of combination resulting in fluconazole MIC of: 4 ug/mL: 0.375
  FICI of combination resulting in fluconazole MIC of: 8 ug/mL: 0.375
  FICI of combination resulting in fluconazole MIC of: 2 ug/mL (value in parenthesis): 0.266
  FICI of combination resulting in fluconazole MIC of: 4 ug/mL (value in parenthesis): 0.281
  FICI of combination resulting in fluconazole MIC of: 8 ug/mL (value in parenthesis): 0.188
  Concentration of Methylgene compound to synergize fluconazole MIC to 2 ug/mL: 8 µg/mL
  Concentration of Methylgene compound to synergize fluconazole MIC to 4 ug/mL: 8 µg/mL
  Concentration of Methylgene compound to synergize fluconazole MIC to 8 ug/mL: 4 µg/mL
[1]; [5]
  MIC: > 16 µg/mL
[1]; [6]
  MIC: > 16 µg/mL
[2]; [7]
  MIC: > 64 µg/mL
[2]; [8]
  MIC: > 64 µg/mL
[3]; [7]
  MIC: 16 µg/mL (≈ 53.4 µM)
[3]; [8]
  MIC: 64 µg/mL (≈ 214 µM)
[4]; [7]
  MIC: > 64 µg/mL
[4]; [8]
  MIC: > 64 µg/mL

## O=C(Cc1ccc(CCCCc2ccccc2NC(=O)CO)cc1)NO [Example 46, N-hydroxy-2-(4-(4-(2-(2-hydroxyacetamido)phe-nyl)butyl)phenyl)acetamide]
[1]; C. glabrata
  FICI of combination resulting in fluconazole MIC of: 2 ug/mL: 0.563
  FICI of combination resulting in fluconazole MIC of: 4 ug/mL: 0.625
  FICI of combination resulting in fluconazole MIC of: 8 ug/mL: 0.500
  FICI of combination resulting in fluconazole MIC of: 2 ug/mL (value in parenthesis): 0.516
  FICI of combination resulting in fluconazole MIC of: 4 ug/mL (value in parenthesis): 0.531
  FICI of combination resulting in fluconazole MIC of: 8 ug/mL (value in parenthesis): 0.313
  Concentration of Methylgene compound to synergize fluconazole MIC to 2 ug/mL: 16 µg/mL
  Concentration of Methylgene compound to synergize fluconazole MIC to 4 ug/mL: 16 µg/mL
  Concentration of Methylgene compound to synergize fluconazole MIC to 8 ug/mL: 8 µg/mL
[1]; [5]
  MIC: > 16 µg/mL
[1]; [6]
  MIC: > 16 µg/mL
[2]; [7]
  MIC: > 64 µg/mL
[2]; [8]
  MIC: > 64 µg/mL
[3]; [7]
  MIC: 64 µg/mL (≈ 180 µM)
[3]; [8]
  MIC: > 64 µg/mL
[4]; [7]
  MIC: > 64 µg/mL
[4]; [8]
  MIC: > 64 µg/mL

## CN1CCC(C(=O)Nc2cccc(CCCCc3ccc(CC(=O)NO)cc3)c2)CC1 [Example 43, N-(3-(4-(4-(2-(hydroxyamino)-2-oxoethyl)phenyl)butyl)phenyl)-1-methylpiperidine-4-carboxamide]
[1]; C. glabrata
  FICI of combination resulting in fluconazole MIC of: 2 ug/mL: 0.313
  FICI of combination resulting in fluconazole MIC of: 4 ug/mL: 0.250
  FICI of combination resulting in fluconazole MIC of: 8 ug/mL: 0.313
  FICI of combination resulting in fluconazole MIC of: 2 ug/mL (value in parenthesis): 0.266
  FICI of combination resulting in fluconazole MIC of: 4 ug/mL (value in parenthesis): 0.156
  FICI of combination resulting in fluconazole MIC of: 8 ug/mL (value in parenthesis): 0.125
  Concentration of Methylgene compound to synergize fluconazole MIC to 2 ug/mL: 8 µg/mL
  Concentration of Methylgene compound to synergize fluconazole MIC to 4 ug/mL: 4 µg/mL
  Concentration of Methylgene compound to synergize fluconazole MIC to 8 ug/mL: 2 µg/mL
[1]; [5]
  MIC: > 16 µg/mL
[1]; [6]
  MIC: > 16 µg/mL
[2]; [7]
  MIC: > 64 µg/mL
[2]; [8]
  MIC: > 64 µg/mL
[3]; [7]
  MIC: 16 µg/mL (≈ 37.8 µM)
[3]; [8]
  MIC: 64 µg/mL (≈ 151 µM)
[4]; [7]
  MIC: > 64 µg/mL
[4]; [8]
  MIC: > 64 µg/mL

## CN(C)CCSCC(=O)Nc1ccc(CCCCc2ccc(CC(=O)NO)cc2)cc1 [Example 38, 2-(2-(dimethylamino)ethylthio)-N-(4-(4-(4-(2-(hydroxyamino)-2-oxoethyl)phenyl)butyl)phenyl)acetamide]
[1]; C. glabrata
  FICI of combination resulting in fluconazole MIC of: 2 ug/mL: 0.563
  FICI of combination resulting in fluconazole MIC of: 4 ug/mL: 0.375
  FICI of combination resulting in fluconazole MIC of: 8 ug/mL: 0.375
  FICI of combination resulting in fluconazole MIC of: 2 ug/mL (value in parenthesis): 0.516
  FICI of combination resulting in fluconazole MIC of: 4 ug/mL (value in parenthesis): 0.281
  FICI of combination resulting in fluconazole MIC of: 8 ug/mL (value in parenthesis): 0.188
  Concentration of Methylgene compound to synergize fluconazole MIC to 2 ug/mL: 8 µg/mL
  Concentration of Methylgene compound to synergize fluconazole MIC to 4 ug/mL: 4 µg/mL
  Concentration of Methylgene compound to synergize fluconazole MIC to 8 ug/mL: 2 µg/mL
[1]; [5]
  MIC: 16 µg/mL
[1]; [6]
  MIC: 16 µg/mL
[1]
  Multiple of compound MIC to synergize fluconazole MIC to 2 ug/mL: (½x)
  Multiple of compound MIC to synergize fluconazole MIC to 4 ug/mL: (¼x)
  Multiple of compound MIC to synergize fluconazole MIC to 8 ug/mL: (⅛x)
[2]; [7]
  MIC: > 64 µg/mL
[2]; [8]
  MIC: > 64 µg/mL
[3]; [7]
  MIC: 16 µg/mL (≈ 36.1 µM)
[3]; [8]
  MIC: 16 µg/mL (≈ 36.1 µM)
[4]; [7]
  MIC: > 64 µg/mL
[4]; [8]
  MIC: > 64 µg/mL

## Cc1ccc(CCCCc2ccc(CC(=O)NO)cc2)cc1 [Example 4, N-hydroxy-2-(4-(4-p-tolylbutyl)phenyl)acetamide]
[1]; C. glabrata
  FICI of combination resulting in fluconazole MIC of: 2 ug/mL: 1.063
  FICI of combination resulting in fluconazole MIC of: 4 ug/mL: 0.605
  FICI of combination resulting in fluconazole MIC of: 8 ug/mL: 0.490
  FICI of combination resulting in fluconazole MIC of: 2 ug/mL (value in parenthesis): 1.016
  FICI of combination resulting in fluconazole MIC of: 4 ug/mL (value in parenthesis): 0.511
  FICI of combination resulting in fluconazole MIC of: 8 ug/mL (value in parenthesis): 0.303
  Concentration of Methylgene compound to synergize fluconazole MIC to 2 ug/mL: 0.25 µg/mL
  Concentration of Methylgene compound to synergize fluconazole MIC to 4 ug/mL: 0.12 µg/mL
  Concentration of Methylgene compound to synergize fluconazole MIC to 8 ug/mL: 0.06 µg/mL
[1]; [5]
  MIC: 0.25 µg/mL
[1]; [6]
  MIC: 0.25 µg/mL
[1]
  Multiple of compound MIC to synergize fluconazole MIC to 2 ug/mL: (1x)
  Multiple of compound MIC to synergize fluconazole MIC to 4 ug/mL: (½x)
  Multiple of compound MIC to synergize fluconazole MIC to 8 ug/mL: (¼x)
[2]; [7]
  MIC: 0.25 µg/mL (≈ 0.841 µM)
[2]; [8]
  MIC: 0.25 µg/mL (≈ 0.841 µM)
[3]; [7]
  MIC: 0.25 µg/mL (≈ 0.841 µM)
[3]; [8]
  MIC: 0.25 µg/mL (≈ 0.841 µM)
[4]; [7]
  MIC: 0.12 µg/mL (≈ 0.403 µM)
[4]; [8]
  MIC: 0.25 µg/mL (≈ 0.841 µM)
